# Measurements: ChEMBL document CHEMBL5346920, “Development of the "hidden" multi-target-directed ligands by AChE/BuChE for the treatment of Alzheimer's disease” (Eur J Med Chem, 2023)
# The source made the active and inactive calls. No cut-off for these calls is given here.
# Tests used:
# [1] = molecular target: T1, Amine oxidase [flavin-containing] B (Homo sapiens, UniProt P27338); experiment: Inhibition of human recombinant MAO-B expressed in baculovirus-infected BTI cells using kynuramine as substrate incubated for 30 mins by fluorescence based analysis
# T1 sequence (P27338 whole entry): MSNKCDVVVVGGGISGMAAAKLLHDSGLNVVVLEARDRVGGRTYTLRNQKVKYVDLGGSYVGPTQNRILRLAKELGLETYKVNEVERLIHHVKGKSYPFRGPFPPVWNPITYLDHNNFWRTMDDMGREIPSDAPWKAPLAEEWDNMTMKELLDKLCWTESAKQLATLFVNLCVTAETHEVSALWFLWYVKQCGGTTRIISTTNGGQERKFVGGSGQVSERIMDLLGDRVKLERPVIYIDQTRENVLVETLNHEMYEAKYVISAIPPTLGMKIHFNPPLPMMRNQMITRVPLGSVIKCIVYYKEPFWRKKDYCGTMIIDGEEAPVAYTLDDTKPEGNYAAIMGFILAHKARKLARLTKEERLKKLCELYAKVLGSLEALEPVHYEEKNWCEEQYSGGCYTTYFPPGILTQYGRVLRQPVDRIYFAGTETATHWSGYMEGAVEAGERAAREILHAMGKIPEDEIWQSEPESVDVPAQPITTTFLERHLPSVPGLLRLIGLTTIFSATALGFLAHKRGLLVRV
# [2] = molecular target: T2, Amine oxidase [flavin-containing] A (Homo sapiens, UniProt P21397); experiment: Inhibition of human recombinant MAO-A expressed in baculovirus-infected BTI cells using kynuramine as substrate at 62.5 uM incubated for 30 mins by fluorescence based analysis; details: 0.5 h
# T2 sequence (P21397 whole entry): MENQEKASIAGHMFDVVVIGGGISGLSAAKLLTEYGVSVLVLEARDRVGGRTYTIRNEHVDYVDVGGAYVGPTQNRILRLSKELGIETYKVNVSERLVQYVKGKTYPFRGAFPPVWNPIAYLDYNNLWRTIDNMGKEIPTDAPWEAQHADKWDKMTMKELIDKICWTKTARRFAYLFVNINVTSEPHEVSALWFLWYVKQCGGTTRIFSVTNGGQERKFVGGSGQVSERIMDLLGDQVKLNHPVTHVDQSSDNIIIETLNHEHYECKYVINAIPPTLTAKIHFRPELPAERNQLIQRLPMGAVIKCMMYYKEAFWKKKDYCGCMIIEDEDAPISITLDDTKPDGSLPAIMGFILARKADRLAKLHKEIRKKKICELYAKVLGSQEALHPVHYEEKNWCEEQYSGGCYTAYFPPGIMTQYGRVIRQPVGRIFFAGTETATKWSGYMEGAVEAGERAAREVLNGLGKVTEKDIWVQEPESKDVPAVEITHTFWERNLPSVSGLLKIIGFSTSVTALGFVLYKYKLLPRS
# BV-2 [3] = experiment: Anti-inflammatory activity against LPS-stimulated mouse BV-2 cells assessed as inhibition of LPS-induced IL-1 beta production by measuring IL-beta level at 3 uM incubated for 24 hrs in presence of LPS (reference value: 221.3 pg/ml); format: functional
# PC-12 [4] = experiment: Neuroprotective activity against Amyloid beta(25 to 35)-induced cell injury in rat PC12 cells assessed as cell viability at 5 uM pretreated for 2 hrs followed by incubation with Abeta(25 to 35) for 24 hrs by CCK-8 assay (reference value: 41 to 58.6%); format: functional; details: time 26 hrs, read-out: Activity
# BV-2 [5] = experiment: Anti-inflammatory activity against LPS-stimulated mouse BV-2 cells assessed as inhibition of LPS-induced NO production incubated for 24 hrs in presence of LPS; format: functional, cell-based; details: dose 1-9 µM
# PC-12 [6] = experiment: Cytotoxicity against rat PC-12 cells assessed as cell viability at 40 uM by CCK-8 assay; format: toxicity, cell-based; details: pc-12, 40 µM
# BV-2 [7] = experiment: Anti-inflammatory activity against LPS-stimulated mouse BV-2 cells assessed as inhibition of LPS-induced IL-1 beta production by measuring IL-beta level at 9 uM incubated for 24 hrs in presence of LPS (reference value: 221.3 pg/ml); format: functional
# PC-12 [8] = experiment: Neuroprotective activity against Amyloid beta(25 to 35)-induced cell injury in rat PC12 cells assessed as cell viability at 10 uM pretreated for 2 hrs followed by incubation with Abeta(25 to 35) for 24 hrs by CCK-8 assay (reference value: 41 to 58.6%); format: functional; details: time 26 hrs, read-out: Activity
# BV-2 [9] = experiment: Anti-inflammatory activity against LPS-stimulated mouse BV-2 cells assessed as inhibition of LPS-induced IL-6 production by measuring IL-6 level at 1 uM incubated for 24 hrs in presence of LPS (reference value: 1503.2 pg/ml); format: functional
# [10] = molecular target: Amyloid-beta precursor protein (Homo sapiens) (UniProt P05067); experiment: Inhibition of self-induced Amyloid beta (1 to 42) (unknown origin) aggregation at 25 uM incubated for 24 hrs by thioflavin T-based fluorescence analysis
# Amyloid-beta precursor protein (Homo sapiens), sequence (P05067 whole entry): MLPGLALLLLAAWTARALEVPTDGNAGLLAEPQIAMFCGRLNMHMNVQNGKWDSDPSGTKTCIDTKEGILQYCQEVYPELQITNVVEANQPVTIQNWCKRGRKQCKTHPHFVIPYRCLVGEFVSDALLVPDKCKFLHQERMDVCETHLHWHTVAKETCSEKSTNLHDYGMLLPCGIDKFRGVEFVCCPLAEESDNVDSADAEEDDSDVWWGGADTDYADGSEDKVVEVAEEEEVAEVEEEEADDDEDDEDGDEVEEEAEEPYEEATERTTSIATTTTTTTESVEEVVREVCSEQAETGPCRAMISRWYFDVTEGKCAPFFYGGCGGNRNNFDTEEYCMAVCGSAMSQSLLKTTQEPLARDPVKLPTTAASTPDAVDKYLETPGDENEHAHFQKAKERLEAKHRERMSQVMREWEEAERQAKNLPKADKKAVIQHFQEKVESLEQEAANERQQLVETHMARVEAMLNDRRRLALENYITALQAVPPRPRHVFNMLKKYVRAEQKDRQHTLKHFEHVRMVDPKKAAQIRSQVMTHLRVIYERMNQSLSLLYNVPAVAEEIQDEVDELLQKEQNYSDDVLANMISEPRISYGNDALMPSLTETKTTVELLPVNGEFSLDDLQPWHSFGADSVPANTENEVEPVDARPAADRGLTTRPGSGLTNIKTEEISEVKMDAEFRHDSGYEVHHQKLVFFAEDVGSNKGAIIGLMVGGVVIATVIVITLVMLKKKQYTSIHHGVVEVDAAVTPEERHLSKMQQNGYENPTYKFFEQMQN
# BV-2 [11] = experiment: Cytotoxicity against mouse BV-2 cells assessed as reduction in cell viability at 10 uM by CCK8 assay; format: toxicity, cell-based; details: bv-2, 10 µM
# BV-2 [12] = experiment: Anti-inflammatory activity against LPS-stimulated mouse BV-2 cells assessed as inhibition of LPS-induced IL-1 beta production by measuring IL-beta level at 1 uM incubated for 24 hrs in presence of LPS (reference value: 221.3 pg/ml); format: functional
# [13] = Cytotoxicity against mouse BV-2 cells assessed as cell viability at 30 uM by CCK8 assay; format: toxicity, cell-based; details: BV-2 cells, read-out: Activity
# BV-2 [14] = experiment: Anti-inflammatory activity against LPS-stimulated mouse BV-2 cells assessed as inhibition of LPS-induced IL-6 production by measuring IL-6 level at 9 uM incubated for 24 hrs in presence of LPS (reference value: 1503.2 pg/ml); format: functional
# [15] = molecular target: T2, Amine oxidase [flavin-containing] A; experiment: Inhibition of human recombinant MAO-A expressed in baculovirus-infected BTI cells using kynuramine as substrate incubated for 30 mins by fluorescence based analysis
# BV-2 [16] = experiment: Anti-inflammatory activity against LPS-stimulated mouse BV-2 cells assessed as inhibition of LPS-induced IL-6 production by measuring IL-6 level at 3 uM incubated for 24 hrs in presence of LPS (reference value: 1503.2 pg/ml); format: functional
# Homo sapiens = species: Homo sapiens; experiment: Selectivity index, ratio of IC50 for inhibition of human recombinant MAO-A expressed in baculovirus-infected BTI cells to IC50 for inhibition of human recombinant MAO-B expressed in baculovirus-infected BTI cells
# PC-12 [17] = experiment: Neuroprotective activity against Amyloid beta(25 to 35)-induced cell injury in rat PC12 cells assessed as cell viability at 20 uM pretreated for 2 hrs followed by incubation with Abeta(25 to 35) for 24 hrs by CCK-8 assay (reference value: 41 to 58.6%); format: functional; details: time 26 hrs, read-out: Activity
# BV-2 [18] = experiment: Anti-inflammatory activity against LPS-stimulated mouse BV-2 cells assessed as inhibition of LPS-induced IL-1 beta production incubated for 24 hrs in presence of LPS; format: functional, cell-based; details: dose 1-9 µM
# Cholinesterase = Cholinesterase (Equus caballus, UniProt P81908); experiment: Inhibition of equine serum BuChE using butyrylthiocholine chloride as substrate by Ellman's method; format: cell-free
# Cholinesterase, sequence (P81908 whole entry): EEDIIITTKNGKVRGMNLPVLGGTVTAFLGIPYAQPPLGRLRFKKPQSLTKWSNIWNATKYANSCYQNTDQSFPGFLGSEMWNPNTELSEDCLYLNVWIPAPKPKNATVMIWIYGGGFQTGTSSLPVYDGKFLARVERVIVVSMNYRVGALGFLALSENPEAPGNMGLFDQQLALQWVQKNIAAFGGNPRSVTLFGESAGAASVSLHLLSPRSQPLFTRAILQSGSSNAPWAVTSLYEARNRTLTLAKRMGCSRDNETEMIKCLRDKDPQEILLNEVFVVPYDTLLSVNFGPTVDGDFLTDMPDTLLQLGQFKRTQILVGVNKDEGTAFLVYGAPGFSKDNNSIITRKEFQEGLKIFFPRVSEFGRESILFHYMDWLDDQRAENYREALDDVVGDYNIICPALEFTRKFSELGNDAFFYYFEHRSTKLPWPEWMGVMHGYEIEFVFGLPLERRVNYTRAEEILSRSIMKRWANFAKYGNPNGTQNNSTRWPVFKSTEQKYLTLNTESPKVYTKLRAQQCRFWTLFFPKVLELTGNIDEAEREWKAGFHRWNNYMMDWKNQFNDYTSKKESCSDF
# PC-12 [19] = experiment: Neuroprotective activity against Amyloid beta(25 to 35)-induced cell injury in rat PC12 cells assessed as increase in cell viability pretreated for 2 hrs followed by incubation with Abeta(25 to 35) for 24 hrs by CCK-8 assay; format: functional, cell-based; details: dose 5-20 µM, time 26.0 hrs
# BV-2 [20] = experiment: Anti-inflammatory activity against LPS-stimulated mouse BV-2 cells assessed as inhibition of LPS-induced IL-6 production incubated for 24 hrs in presence of LPS; format: functional, cell-based; details: dose 1-9 µM
# [21] = Selectivity index, ratio of IC50 for inhibition of electric eel AChE to IC50 for inhibition of equine serum BuChE
# Acetylcholinesterase = Acetylcholinesterase (Electrophorus electricus, UniProt O42275); experiment: Inhibition of electric eel AChE using acetylthiocholine chloride as substrate by Ellman's method
# Acetylcholinesterase, sequence (O42275 whole entry): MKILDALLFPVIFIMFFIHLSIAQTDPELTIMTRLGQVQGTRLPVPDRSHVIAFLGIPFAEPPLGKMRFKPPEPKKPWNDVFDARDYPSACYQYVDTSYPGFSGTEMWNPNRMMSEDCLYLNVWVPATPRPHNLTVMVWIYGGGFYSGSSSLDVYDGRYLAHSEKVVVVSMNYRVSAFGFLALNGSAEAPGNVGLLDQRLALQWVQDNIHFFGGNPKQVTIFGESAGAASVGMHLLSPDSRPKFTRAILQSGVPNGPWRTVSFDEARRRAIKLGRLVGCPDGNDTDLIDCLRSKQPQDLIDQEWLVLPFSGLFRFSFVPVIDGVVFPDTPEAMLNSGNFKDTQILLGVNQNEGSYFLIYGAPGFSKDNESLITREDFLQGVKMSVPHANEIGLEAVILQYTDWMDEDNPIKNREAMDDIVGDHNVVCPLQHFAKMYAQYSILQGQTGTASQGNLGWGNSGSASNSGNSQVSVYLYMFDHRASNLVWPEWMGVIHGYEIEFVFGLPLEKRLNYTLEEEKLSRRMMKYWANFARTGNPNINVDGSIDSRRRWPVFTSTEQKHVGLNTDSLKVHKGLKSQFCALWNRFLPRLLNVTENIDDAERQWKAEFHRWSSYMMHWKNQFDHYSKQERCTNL
# [22] = molecular target: Acetylcholinesterase (Electrophorus electricus) (UniProt O42275); experiment: Reversible inhibition of electric eel AChE assessed as enzyme activity using acetylthiocholine iodide as substrate measured after dilution to 0.1XIC50 for 120 mins by Ellman's method; design: scale not given: the % may be the effect or the level left
# Acetylcholinesterase (Electrophorus electricus), sequence (O42275 24-633 limits assumed): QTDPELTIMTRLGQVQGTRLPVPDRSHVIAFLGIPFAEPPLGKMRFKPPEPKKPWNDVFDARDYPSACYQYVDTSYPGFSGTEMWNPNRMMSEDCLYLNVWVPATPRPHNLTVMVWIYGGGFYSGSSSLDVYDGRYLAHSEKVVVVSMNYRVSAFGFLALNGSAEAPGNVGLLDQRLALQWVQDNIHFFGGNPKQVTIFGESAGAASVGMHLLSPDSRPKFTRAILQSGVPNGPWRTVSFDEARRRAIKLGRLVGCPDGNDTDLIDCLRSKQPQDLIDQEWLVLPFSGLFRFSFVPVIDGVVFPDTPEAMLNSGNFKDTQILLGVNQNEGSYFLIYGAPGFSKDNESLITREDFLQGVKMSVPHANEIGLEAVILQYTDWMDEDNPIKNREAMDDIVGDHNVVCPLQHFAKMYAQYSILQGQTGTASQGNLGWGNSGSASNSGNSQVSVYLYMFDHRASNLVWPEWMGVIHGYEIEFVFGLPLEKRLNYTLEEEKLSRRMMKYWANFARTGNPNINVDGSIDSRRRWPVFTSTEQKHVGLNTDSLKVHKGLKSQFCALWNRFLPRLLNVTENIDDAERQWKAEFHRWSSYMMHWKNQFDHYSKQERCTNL
# [23] = molecular target: Cholinesterase (Equus caballus) (UniProt P81908); experiment: Reversible inhibition of equine serum BuChE assessed as enzyme activity using butyrylthiocholine chloride as substrate measured after dilution to 0.1XIC50 for 240 mins by Ellman's method; format: cell-free; design: scale not given: the % may be the effect or the level left
# Cholinesterase (Equus caballus), sequence (P81908 whole entry): as the sequence (P81908 whole entry) above
# [24] = Metal chelating activity assessed as compound-Cu2+ complex formation by measuring small fiber aggregates incubated for 24 hrs by transmission electron microscopy
# [25] = Metal chelating activity assessed as compound-Cu2+ complex formation by measuring inhibition of Cu2+-induced amyloid beta (1 to 42) aggregation at 25 uM by thioflavin T-based fluorescence analysis
# [26] = Permeability of the compound at 100 ug/ml incubated for 18 hrs by PAMPA assay; format: ADME; details: dose 100 µg/ml, read-out: permeability
smiles,measurement,setting,value
COc1ccccc1/C=C/C(=O)c1ccccc1O,IC50,[1],5.9 µM
same,inhibition at 62.5 µM,[2],< 15%
O=C(/C=C/c1ccc(O)cc1)c1ccccc1O,Activity,BV-2 [3],77.6 pg/mL
same,viability at 5 µM,PC-12 [4],88.9%
same,Activity,BV-2 [5],Dose-Dependent Effect
same,Activity,PC-12 [6],Non-Toxic
same,Activity,BV-2 [7],50.9 pg/mL
same,IC50,[1],0.8 µM
same,viability at 10 µM,PC-12 [8],91%
same,Activity,BV-2 [9],763.2 pg/mL
same,inhibition,[10],80.7%
same,Activity,BV-2 [11],Non-Toxic
same,Activity,BV-2 [12],147.6 pg/mL
same,viability at 30 µM,[13],71.5%
same,Activity,BV-2 [14],337.5 pg/mL
same,IC50,[15],66.1 µM
same,Activity,BV-2 [16],489.3 pg/mL
same,Ratio IC50,Homo sapiens,82.6
same,viability at 20 µM,PC-12 [17],94.6%
O=C(/C=C/c1ccc2ccccc2c1Br)c1ccccc1O,IC50,[1],2.8 µM
same,inhibition at 62.5 µM,[2],< 15%
O=C(/C=C/c1c(Br)cccc1Br)c1ccccc1O,IC50,[1],60.3 µM
same,inhibition at 62.5 µM,[2],< 15%
CCN(CC)C(=O)Oc1ccccc1C(=O)/C=C/c1ccc(F)cc1,Activity,BV-2 [5],Dose-Dependent Effect
same,Activity,PC-12 [6],Non-Toxic
same,IC50,[1],2.1 µM
same,Activity,BV-2 [18],Dose-Dependent Effect
same,Activity,BV-2 [11],Non-Toxic
same,IC50,[15],52.3 µM
same,IC50,Cholinesterase,18.9 µM
same,Activity,PC-12 [19],Dose-Dependent Effect
same,Ratio IC50,Homo sapiens,24.9
same,Activity,BV-2 [20],Dose-Dependent Effect
same,Ratio IC50,[21],0.59
same,IC50,Acetylcholinesterase,11.2 µM
O=C(/C=C/c1ccc(Cl)cc1)c1ccccc1O,IC50,[1],10.3 µM
same,IC50,[15],78.8 µM
same,Ratio IC50,Homo sapiens,7.7
O=C(/C=C/c1ccc(Br)cc1OC(F)(F)F)c1ccccc1O,IC50,[1],2.6 µM
same,IC50,[15],59.3 µM
same,Ratio IC50,Homo sapiens,22.9
CCN(C)C(=O)Oc1cccc([C@H](C)N(C)C)c1,Activity,[22],94.7%
same,Activity,[23],81.2%
O=C(/C=C/c1cc2ccccc2c2ccccc12)c1ccccc1O,IC50,[1],76.8 µM
same,inhibition at 62.5 µM,[2],< 15%
COc1ccc(Br)cc1/C=C/C(=O)c1ccccc1O,IC50,[1],27.5 µM
same,inhibition at 62.5 µM,[2],< 15%
CN(C)C(=O)Oc1ccccc1C(=O)/C=C/c1ccc(F)cc1,Activity,BV-2 [5],Dose-Dependent Effect
same,Activity,PC-12 [6],Non-Toxic
same,IC50,[1],2.7 µM
same,Activity,BV-2 [18],Dose-Dependent Effect
same,Activity,BV-2 [11],Non-Toxic
same,IC50,[15],31.5 µM
same,IC50,Cholinesterase,6.3 µM
same,Activity,PC-12 [19],Dose-Dependent Effect
same,Ratio IC50,Homo sapiens,11.7
same,Activity,BV-2 [20],Dose-Dependent Effect
same,Ratio IC50,[21],1.4
same,IC50,Acetylcholinesterase,8.7 µM
COc1ccc(/C=C/C(=O)c2ccccc2O)cc1,Activity,BV-2 [5],Dose-Dependent Effect
same,Activity,PC-12 [6],Non-Toxic
same,IC50,[1],1.3 µM
same,Activity,BV-2 [18],Dose-Dependent Effect
same,inhibition,[10],61.1%
same,Activity,BV-2 [11],Non-Toxic
same,viability at 30 µM,[13],78.9%
same,IC50,[15],53.2 µM
same,Activity,PC-12 [19],Dose-Dependent Effect
same,Ratio IC50,Homo sapiens,40.9
same,Activity,BV-2 [20],Dose-Dependent Effect
O=C(/C=C/c1ccccc1F)c1ccccc1O,IC50,[1],12.6 µM
same,inhibition at 62.5 µM,[2],< 15%
COc1cc(/C=C/C(=O)CC(=O)/C=C/c2ccc(O)c(OC)c2)ccc1O [CURCUMIN],viability at 5 µM,PC-12 [4],62.5%
same,Activity,PC-12 [6],Non-Toxic
same,Activity,[24],Active
same,viability at 10 µM,PC-12 [8],76.3%
same,inhibition,[25],53.5%
same,viability at 20 µM,PC-12 [17],85.5%
COc1ccc2cc(/C=C/C(=O)c3ccccc3O)ccc2c1,IC50,[1],78.4 µM
same,inhibition at 62.5 µM,[2],< 15%
COc1cccc(/C=C/C(=O)c2ccccc2O)c1,IC50,[1],3.4 µM
same,IC50,[15],35.7 µM
same,Ratio IC50,Homo sapiens,10.5
CCn1cc(C(=O)O)c(=O)c2cc(F)c(N3CCNCC3)cc21 [NORFLOXACIN],"Papp at 18 h, 100 ug/ml",[26],0.21 ×10⁻⁶ cm/s
O=C(/C=C/c1c(F)cccc1Br)c1ccccc1O,IC50,[1],4.7 µM
same,inhibition at 62.5 µM,[2],< 15%
O=C(/C=C/c1cccc(O)c1)c1ccccc1O,IC50,[1],1.7 µM
same,IC50,[15],50.9 µM
same,Ratio IC50,Homo sapiens,29.9
